Patent US5391817A, “Biaryl phospholipase A2 inhibitors” (Bristol-Myers Squibb, priority 1993, dated 1995)

These compounds were tested against T1, PLA2 (Homo sapiens, UniProt P14555) (assay: PLA2 Inhibition Assay (14C-oleate labeled E. coli membrane substrate)). Conditions: 100 μM (sic, Table 6); PLA2 from human platelets; pH 7, 37° C.
T1 construct: The enzyme is isolated from human platelets; from tissue; host or cells: human platelets
T1 sequence (P14555 21-144): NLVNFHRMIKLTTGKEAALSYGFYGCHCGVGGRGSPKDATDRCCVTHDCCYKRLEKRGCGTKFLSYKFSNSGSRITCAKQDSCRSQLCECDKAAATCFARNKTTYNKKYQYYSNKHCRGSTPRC
Type: biochemical
Method: The method used is similar to that reported by Franson, et al. [Jesse, R. L. and Franson R. C., Biochim. Biophys. Acta 575: 467-470 (1979); Franson, R. C., Patriarca, P., and Elsback, P., J. Lipid Res. 15: 380-388 (1974)]. The enzyme is isolated from human platelets. The substrate used consists of ^14 C-oleate labeled Escherichia coli membranes. E. coli cells are grown in the presence of ^14 C-oleic acid and then autoclaved to prepare the membranes.
Various concentrations of test compounds are preincubated with PLA2 (3.6 mg/mL in a buffer consisting of 25 mM HEPES (pH 7)), 150 mM NaCl, 5.0 mM CaCl2, and 10% DMSO (v/v, test compound solvent) at 37° C. for 7 minutes. The E. coli substrate is then added (0.1 mM phospholipid, 0,005 mCi ^14 C) and the reaction is then incubated at 37° C. for 30 minutes. The reaction is then terminated by the addition of 1.9 mL tetrahydrofuran (THF), and the entire solution is applied to a solid-phase extraction column (aminopropyl resin, Analytichem). The column is rinsed with an additional 1 mL of THF. The free fatty acid product of the reaction is then eluted from the column with 1 mL 2% acetic acid in THF and collected in a scintillation vial. The amount of free fatty acid product is determined by liquid scintillation counting. The amount of inhibition produced by the test compound is calculated by comparing the counts obtained in the presence of the compound to those obtained in its absence (solvent only). Background counts were determined by performing incubations in the absence of enzyme.
Percent inhibition is determined by the equation: [formula]

Going from CC1(C)CCC(C)(C)c2cc(COc3ccccc3-c3cccc(C(=O)O)c3)ccc21 [Structure 52a, 2-[5,6,7,8-tetrahydro-5,5,8,8-tetramethyl-2-naphthalenyl]methoxy-[1,1'-biphenyl]-3'-carboxylic acid] to CC1(C)CCC(C)(C)c2cc(COc3ccccc3-c3cccc(CC(=O)O)c3)ccc21 [Structure 57, 2-[5,6,7,8-tetrahydro-5,5,8,8-tetramethyl-2-naphthalenyl]methoxy-[1,1'-biphenyl]-3'-acetic acid], the “% Inhibition of PLA2 at 100 .infin.M” value rises from 83% to 92%.

Compared with CC1(C)CCC(C)(C)c2cc(COc3ccccc3-c3ccc(C(=O)O)cc3)ccc21 [Structure 52b, 2-[5,6,7,8-tetrahydro-5,5,8,8-tetramethyl-2-naphthalenyl]methoxy-[1,1'-biphenyl]-4'-carboxylic acid], CC1(C)CCC(C)(C)c2cc(COc3ccccc3-c3ccccc3C(=O)O)ccc21 [Structure 52c, 2-[5,6,7,8-tetrahydro-5,5,8,8-tetramethyl-2-naphthalenyl]methoxy-[1,1'-biphenyl]-2'-carboxylic acid] is higher in “% Inhibition of PLA2 at 100 .infin.M” value: 66% for the first, 72% for the second.

Same assay, conditions: 100 μM; PLA2 from human platelets; pH 7, 37° C.

First: CC(C)=CCOc1ccc(COc2cccc(/C=C/C(=O)O)c2-c2cccc(C(=O)O)c2)cc1OCC=C(C)C [Structure 39a, 2-[3,4-his (3-methyl-2-butenyloxy)phenyl]methoxy-3'-carboxy-[1,1'-biphenyl]-6-[(E)-3-propenoic acid]]
Second: CCCCCOc1ccc(COc2cccc(/C=C/C(=O)O)c2-c2cccc(C(=O)O)c2)cc1OCCCCC [Structure 39c]
The inhibition at 100 µM of the first is higher: 73% for the first, 59% for the second.

Going from O=C(O)/C=C/c1cccc(OCc2ccc(OC3CCCC3)c(OC3CCCC3)c2)c1-c1cccc(C(=O)O)c1 [Structure 39b] to CC1(C)CCC(C)(C)c2cc(COc3cccc(/C=C/C(=O)O)c3-c3cccc(C(=O)O)c3)ccc21 [Structure 39d, 3'-carboxy-2-[5,6,7,8-tetrahydo-5,5,8,8-tetramethyl-2-naphthalenyl]methoxy-[1,1'-biphenyl]-6-[(E)-3-propenoic acid]], the inhibition at 100 µM falls from 86% to 72%.

Compared with CC1(C)CCC(C)(C)c2cc(COc3ccc(C(=O)O)cc3-c3ccccc3)ccc21 [Structure 44, 2-[5,6,7,8-tetrahydro-5,5,8,8-tetramethyl-2-naphthalenyl]methoxy-[1,1'-biphenyl]-5-carboxylic acid], CC1(C)CCC(C)(C)c2cc(COc3c(C(=O)O)cccc3-c3ccccc3)ccc21 [Structure 48, 2-[5,6,7,8-tetrahydro-5,5,8,8-tetramethyl-2-naphthalenyl]methoxy-[1,1'-biphenyl]-3-carboxylic acid] is higher in inhibition at 100 µM: 70% for the first, 88% for the second.
